Values after ≈ are worked out from the molar mass of the structure shown. Bridge positions count the residues as written; N and C are the ends. Square brackets hold non-standard residues; d marks the D form. Peptide text beside a SMILES is read from it. * marks the point of attachment. Decanoyl(3R-OH) = CCCCCCC[C@@H](O)CC(=O)*; dDab = NCC[C@@H](N)C(=O)O; Dab = NCC[C@H](N)C(=O)O
Experiments:
[1] = system: RPTEC; assay: (§1) Cytotoxicity against human RPTEC after 24 hrs by LDH assay; format: cell-based; conditions: rptec, 24 h
[2] = system: HK-2; assay: (§2) Cytotoxicity against HK2 cells after 24 hrs by LDH assay; format: cell-based; conditions: human, hk-2, 24 h
[3] = system: Escherichia coli; assay: Antimicrobial activity against Escherichia coli ATCC 25922 measured after 24 hrs; format: functional
[4] = system: Staphylococcus aureus; assay: Antimicrobial activity against meticillin-susceptible Staphylococcus aureus ATCC 25923 measured after 24 hrs; format: functional
[5] = system: Klebsiella pneumoniae; assay: Antimicrobial activity against NDM-1 positive Klebsiella pneumoniae BAA-2146 measured after 24 hrs; format: functional
[6] = system: Pseudomonas aeruginosa; assay: Antimicrobial activity against polymyxin-resistant Pseudomonas aeruginosa clinical isolate PA9704 measured after 24 hrs; format: functional
[7] = system: Klebsiella quasipneumoniae subsp. Similipneumoniae; assay: (§3) Antimicrobial activity against multi-drug resistant Klebsiella quasipneumoniae subsp. similipneumoniae ATCC 700603 measured after 24 hrs; format: functional
[8] = system: Acinetobacter baumannii; assay: Antimicrobial activity against Acinetobacter baumannii ATCC 19606 measured after 24 hrs; format: functional
[9] = system: Pseudomonas aeruginosa; assay: Antimicrobial activity against polymyxin-resistant Pseudomonas aeruginosa clinical isolate FADDI-PA070 measured after 24 hrs; format: functional
[10] = system: Pseudomonas aeruginosa; assay: Antimicrobial activity against Pseudomonas aeruginosa ATCC 27853 measured after 24 hrs; format: functional
[11] = system: Klebsiella pneumoniae; assay: Antimicrobial activity against Klebsiella pneumoniae ATCC 13883 measured after 24 hrs; format: functional
[12] = as §3; format: functional; conditions: ATCC 700603, 24 h
[13] = as §1; format: cell-based; conditions: RPTEC cells
[14] = as §2; format: cell-based, HK-2; conditions: human, HK-2 cells
[15] = ATCC 19606 = CIP 70.34 = JCM 6841, 24 h

**Q.** For POLYMYXIN B [listing 1 of 2 here], which CC50 [1] is on record?
**A.** Its CC50 is greater than 300 µM.

**Q.** What about the CC50 [2] of the same compound?
**A.** Its CC50 is 135 µM.

**Q.** Which MIC [3] does the source give for POLYMYXIN B [listing 2 of 2 here] here?
**A.** The MIC was 0.25 µg/mL.

**Q.** What about the MIC [4] of the same compound?
**A.** The MIC was greater than 64 µg/mL.

**Q.** And the MIC ([5]; ATCC BAA-2146)?
**A.** Its MIC is 0.25 µg/mL.

**Q.** And the MIC [6]?
**A.** Its MIC is 128 µg/mL.

**Q.** And the MIC [7]?
**A.** The MIC was 0.25 µg/mL.

**Q.** And the MIC ([8]; ATCC 19606 = CIP 70.34 = JCM 6841)?
**A.** The MIC was 0.25 µg/mL.

**Q.** And the MIC [9]?
**A.** The MIC was 32 µg/mL.

**Q.** What about the MIC [10] of the same compound?
**A.** The MIC was 0.5 µg/mL.

**Q.** What about the MIC [11] of the same compound?
**A.** The MIC was 0.25 µg/mL.

**Q.** For `CCCCCCC[C@@H](O)CC(=O)N[C@H](CCN)C(=O)N[C@@H](CCN)C(=O)N[C@@H](CCN)C(=O)N[C@H](Cc1ccccc1)C(=O)N[C@@H](CC(C)C)C(=O)N[C@@H](CCN)C(=O)N[C@@H](CCN)C(=O)N[C@@H](CC(C)C)C(=O)O` [listing 1 of 2 here], which MIC ([3]; ATCC 25922, 24 h) is on record?
**A.** Its MIC is 16 µg/mL (≈ 15.1 µM).

**Q.** What about the MIC ([4]; ATCC 25923, 24 h) of the same compound?
**A.** The MIC was 32 µg/mL (≈ 30.1 µM).

**Q.** And the MIC ([5]; ATCC BAA-2146, 24 h)?
**A.** Its MIC is greater than 32 µg/mL.

**Q.** What about the MIC ([6]; isolate PA9704, 24 h) of the same compound?
**A.** The MIC was greater than 32 µg/mL.

**Q.** What about the MIC [12] of the same compound?
**A.** The MIC was 16 µg/mL (≈ 15.1 µM).

**Q.** What about the MIC [8, 15] of the same compound?
**A.** Its MIC is greater than 32 µg/mL.

**Q.** And the MIC ([9]; isolate FADDI-PA070, 24 h)?
**A.** Its MIC is 32 µg/mL (≈ 30.1 µM).

**Q.** What about the MIC ([10]; ATCC 27853, 24 h) of the same compound?
**A.** The MIC was 4 µg/mL (≈ 3.77 µM).

**Q.** And the MIC ([11]; ATCC 13883, 24 h)?
**A.** Its MIC is greater than 32 µg/mL.

**Q.** With `CCCCCCC[C@@H](O)CC(=O)N[C@H](CCN)C(=O)N[C@@H](CCN)C(=O)N[C@@H](CCN)C(=O)N[C@H](Cc1ccccc1)C(=O)N[C@@H](CC(C)C)C(=O)N[C@@H](CCN)C(=O)N[C@@H](CCN)C(=O)N[C@@H](CC(C)C)C(=O)O` [listing 2 of 2 here] as the compound, how does the CC50 at 24 h [13] read?
**A.** The CC50 at 24 h was 71 µM.

**Q.** What about the CC50 at 24 h [14] of the same compound?
**A.** The CC50 at 24 h was 139 µM.

**Q.** For `CCCCCCC[C@@H](O)CC(=O)N[C@H](CCN)C(=O)N[C@H]1CCNC(=O)[C@H](CC(C)C)NC(=O)[C@H](CCN)NC(=O)[C@H](CCN)NC(=O)[C@H](CC(C)C)NC(=O)[C@@H](Cc2ccccc2)NC(=O)[C@H](CCN)NC1=O` ({Decanoyl(3R-OH)}-[dDab][Dab][Dab][dF]L[Dab][Dab]L; lactam 2-C), which MIC ([3]; ATCC 25922, 24 h) is on record?
**A.** Its MIC is 4 µg/mL (≈ 3.83 µM).

**Q.** And the MIC ([4]; ATCC 25923, 24 h)?
**A.** Its MIC is 16 µg/mL (≈ 15.3 µM).

**Q.** And the MIC ([5]; ATCC BAA-2146, 24 h)?
**A.** Its MIC is 8 µg/mL (≈ 7.66 µM).

**Q.** What about the MIC ([6]; isolate PA9704, 24 h) of the same compound?
**A.** The MIC was 2 µg/mL (≈ 1.92 µM).

**Q.** What about the MIC [12] of the same compound?
**A.** The MIC was 8 µg/mL (≈ 7.66 µM).

**Q.** And the CC50 at 24 h [13]?
**A.** Its CC50 at 24 h is 39 µM.

**Q.** And the MIC [8, 15]?
**A.** Its MIC is 4 µg/mL (≈ 3.83 µM).

**Q.** And the MIC ([9]; isolate FADDI-PA070, 24 h)?
**A.** Its MIC is 2 µg/mL (≈ 1.92 µM).

**Q.** And the MIC ([10]; ATCC 27853, 24 h)?
**A.** Its MIC is 2 µg/mL (≈ 1.92 µM).

**Q.** And the MIC ([11]; ATCC 13883, 24 h)?
**A.** Its MIC is 8 µg/mL (≈ 7.66 µM).

**Q.** And the CC50 at 24 h [14]?
**A.** The CC50 at 24 h was 31 µM.

From ChEMBL document CHEMBL4028839, “Synthesis of octapeptin C4 and biological profiling against NDM-1 and polymyxin-resistant bacteria” (Bioorg Med Chem Lett, 2017)
